Results: patent US20110306597A1, “Nicotinamide Derivatives” (priority 2008, published 2011)

Biological target: human recombinant H-PGDS (Homo sapiens, UniProt O60760)
Experiment: Fluorescence Intensity h-PGDS TBA Enzyme Assay
Format: biochemical
Settings: 1:175,000 human recombinant H-PGDS, highest inhibitor concentration typically 1 μM
In short: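 Readout is PGH2 depletion: after a 42 s reaction with 5.0 μM PGH2 and 2.5 mM glutathione (pH 8.0 Tris, 10 min inhibitor preincubation), Fe(II) converts leftover PGH2 to MDA, which forms a fluorescent TBA complex. IC50s come from 11-point, 3-fold duplicate curves, 4-parameter fit.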

Sequence of human recombinant H-PGDS (O60760 whole entry): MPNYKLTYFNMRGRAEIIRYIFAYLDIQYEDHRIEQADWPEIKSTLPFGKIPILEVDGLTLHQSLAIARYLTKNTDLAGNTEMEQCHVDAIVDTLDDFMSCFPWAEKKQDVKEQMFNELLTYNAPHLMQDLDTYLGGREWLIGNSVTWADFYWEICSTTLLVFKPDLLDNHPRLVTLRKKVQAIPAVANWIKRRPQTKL

SMILES	IC50 [nM]
CNS(=O)(=O)c1ccc(CNC(=O)c2ccc(-c3cccc(C)c3)nc2)cc1 [Example 218, N-{4-[(Methylamino)sulfonyl]benzyl}-6-(3-methylphenyl)nicotinamide]	27.6
COC(=O)[C@H](C)NC(=O)c1ccc(-c2cccc(C)c2)nc1 [Example 219, Methyl N-{[6-(3-methylphenyl)pyridin-3-yl]carbonyl}alaninate]	89.4
CCOC(=O)C1(NC(=O)c2ccc(-c3cccc(C)c3)nc2)CCOCC1 [Example 220, Ethyl 4-({[6-(3-methylphenyl)pyridin-3-yl]carbonyl}amino)tetrahydro-2H-pyran-4-carboxylate]	93.4
CCOC(=O)CC(NC(=O)c1ccc(-c2cccc(C)c2)nc1)c1ccc(Cl)cc1 (stereo not drawn) [Example 221, Ethyl 3-(4-chlorophenyl)-3-({[6-(3-methylphenyl)pyridin-3-yl]carbonyl}amino)propanoate]	55.9
Cc1cccc(-c2ccc(C(=O)NCc3nc(CS(C)(=O)=O)no3)cn2)c1 [Example 222, 6-(3-Methylphenyl)-N-({3-[(methylsulfonyl)methyl]-1,2,4-oxadiazol-5-yl}methyl)nicotinamide]	351
COC(=O)CCNC(=O)c1ccc(-c2cccc(C)c2)nc1 [Example 223, Methyl N-{[6-(3-methylphenyl)pyridin-3-yl]carbonyl}-beta-alaninate]	44.1
Cc1cccc(-c2ccc(C(=O)NCCN3CCCCC3=O)cn2)c1 [Example 224, 6-(3-Methylphenyl)-N-[2-(2-oxopiperidin-1-yl)ethyl]nicotinamide]	56.4
Cc1cccc(-c2ccc(C(=O)NCCN3CCCCC3)cn2)c1 [Example 225, 6-(3-Methylphenyl)-N-(2-piperidin-1-ylethyl)nicotinamide]	265
Cc1cccc(-c2ccc(C(=O)NCc3ccccc3C)cn2)c1 [Example 226, N-(2-Methylbenzyl)-6-(3-methylphenyl)nicotinamide]	12.4
Cc1ccc(CN2CCC(NC(=O)c3ccc(-c4cccc(C)c4)nc3)C2=O)cc1 (stereo not drawn) [Example 227, N-[1-(4-Methylbenzyl)-2-oxopyrrolidin-3-yl]-6-(3-methylphenyl)nicotinamide]	62.2
Cc1cccc(-c2ccc(C(=O)Nc3ccncc3)cn2)c1 [Example 228, 6-(3-Methylphenyl)-N-pyridin-4-ylnicotinamide]	6.51
COC(=O)CNC(=O)[C@H](C)NC(=O)c1ccc(-c2cccc(C)c2)nc1 [Example 229, Methyl N-{[6-(3-methylphenyl)pyridin-3-yl]carbonyl}-L-alanylglycinate]	125
COC(=O)CC(NC(=O)c1ccc(-c2cccc(C)c2)nc1)c1cccnc1 (stereo not drawn) [Example 230, Methyl 3-({[6-(3-methylphenyl)pyridin-3-yl]carbonyl}amino)-3-pyridin-3-ylpropanoate]	47.2
Cc1cccc(-c2ccc(C(=O)NCCCNc3ccccn3)cn2)c1 [Example 231, 6-(3-Methylphenyl)-N-[3-(pyridin-2-ylamino)propyl]nicotinamide]	7.86
COC(C)(C)CNC(=O)c1ccc(-c2cccc(C)c2)nc1 [Example 232, N-(2-Methoxy-2-methylpropyl)-6-(3-methylphenyl)nicotinamide]	137
Cc1cccc(-c2ccc(C(=O)NCCc3nc(C)no3)cn2)c1 [Example 233, N-[2-(3-Methyl-1,2,4-oxadiazol-5-yl)ethyl]-6-(3-methylphenyl)nicotinamide]	85.5
Cc1cccc(-c2ccc(C(=O)NCC(C)O)cn2)c1 (stereo not drawn) [Example 234, N-(2-Hydroxypropyl)-6-(3-methylphenyl)nicotinamide]	66.2
CCC1CCN(CCNC(=O)c2ccc(-c3cccc(C)c3)nc2)CC1 [Example 235, N-[2-(4-Ethylpiperidin-1-yl)ethyl]-6-(3-methylphenyl)nicotinamide]	38.8
Cc1cccc(-c2ccc(C(=O)NCC(=O)OCc3ccccc3)cn2)c1 [Example 236, Benzyl N-{[6-(3-methylphenyl)pyridin-3-yl]carbonyl}glycinate]	109
Cc1cccc(-c2ccc(C(=O)NCCN3CCCC3)cn2)c1 [Example 237, 6-(3-Methylphenyl)-N-(2-pyrrolidin-1-ylethyl)nicotinamide]	504
Cc1cccc(-c2ccc(C(=O)NCC3CCCCO3)cn2)c1 (stereo not drawn) [Example 239, 6-(3-Methylphenyl)-N-(tetrahydro-2H-pyran-2-ylmethyl)nicotinamide]	67.6
Cc1cccc(-c2ccc(C(=O)NCCc3ccncc3)cn2)c1 [Example 240, 6-(3-Methylphenyl)-N-(2-pyridin-4-ylethyl)nicotinamide]	10.7
COC(=O)CNC(=O)c1ccc(-c2cccc(C)c2)nc1 [Example 241, Methyl N-{[6-(3-methylphenyl)pyridin-3-yl]carbonyl}glycinate]	150
Cc1cccc(-c2ccc(C(=O)NCC(C)(C)CN(C)C)cn2)c1 [Example 242, N-[3-(Dimethylamino)-2,2-dimethylpropyl]-6-(3-methylphenyl)nicotinamide]	300

SMILES	IC50 [nM]
Cc1cccc(-c2ccc(C(=O)NC(=O)[C@@H](N)C(C)C)cn2)c1 [Example 243, 6-(3-Methylphenyl)-N-L-valylnicotinamide]	124
Cc1cccc(-c2ccc(C(=O)NCC(=O)N(C)C)cn2)c1 [Example 244, N-[2-(Dimethylamino)-2-oxoethyl]-6-(3-methylphenyl)nicotinamide]	230
Cc1cccc(-c2ccc(C(=O)NCc3cccc(S(C)(=O)=O)c3)cn2)c1 [Example 245, 6-(3-Methylphenyl)-N-[3-(methylsulfonyl)benzyl] nicotinamide]	11.5
Cc1cccc(-c2ccc(C(=O)NCc3ccco3)cn2)c1 [Example 246, N-(2-Furylmethyl)-6-(3-methylphenyl)nicotinamide]	29.2
Cc1cccc(-c2ccc(C(=O)NCc3ccc(S(C)(=O)=O)cc3)cn2)c1 [Example 247, 6-(3-Methylphenyl)-N-[4-(methylsulfonyl)benzyl] nicotinamide]	18.1
Cc1cccc(-c2ccc(C(=O)NC(=O)CC(N)C3CC3)cn2)c1 (stereo not drawn) [Example 248, N-(3-Amino-3-cyclopropylpropanoyl)-6-(3-methylphenyl)nicotinamide]	73.3
Cc1cccc(-c2ccc(C(=O)NCCN3CCN(Cc4ccccc4)CC3)cn2)c1 [Example 249, N-[2-(4-Benzylpiperazin-1-yl)ethyl]-6-(3-methylphenyl)nicotinamide]	29.8
Cc1cccc(-c2ccc(C(=O)NC3CCOC3=O)cn2)c1 (stereo not drawn) [Example 250, 6-(3-Methylphenyl)-N-(2-oxotetrahydrofuran-3-yl)nicotinamide]	74.5
Cc1ccc(CNC(=O)c2ccc(-c3cccc(C)c3)nc2)cc1 [Example 251, N-(4-Methylbenzyl)-6-(3-methylphenyl)nicotinamide]	105
Cc1cccc(-c2ccc(C(=O)NC3CCOCC3)cn2)c1 [Example 252, 6-(3-Methylphenyl)-N-(tetrahydro-2H-pyran-4-yl)nicotinamide]	12.9
Cc1cccc(-c2ccc(C(=O)NCCC3CCN(C)CC3)cn2)c1 [Example 253, 6-(3-Methylphenyl)-N-[2-(1-methylpiperidin-4-yl)ethyl]nicotinamide]	100
Cc1cccc(-c2ccc(C(=O)NC(C)C)cn2)c1 [Example 254, N-Isopropyl-6-(3-methylphenyl)nicotinamide]	28.2
CCOC(=O)CC(NC(=O)c1ccc(-c2cccc(C)c2)nc1)c1ccc(OC)cc1 (stereo not drawn) [Example 255, Ethyl 3-(4-methoxyphenyl)-3-({[6-(3-methylphenyl)pyridin-3-yl]carbonyl}amino)propanoate]	38.7
O=C(Nc1ccccc1)c1ccc(-c2ccc(F)cc2)nc1 [Example 256, 6-(4-Fluorophenyl)-N-phenylnicotinamide]	145
CC(=O)N1CCC(CNC(=O)c2ccc(-c3ccc(F)cc3)nc2)CC1 [Example 257, N-[(1-Acetylpiperidin-4-yl)methyl]-6-(4-fluorophenyl)nicotinamide]	777
CCOC(=O)CC(NC(=O)c1ccc(-c2ccc(F)cc2)nc1)c1ccccc1 (stereo not drawn) [Example 258, Ethyl 3-({[6-(4-fluorophenyl)pyridin-3-yl]carbonyl}amino)-3-phenylpropanoate]	715
Cc1ccc(CN2CCC(NC(=O)c3ccc(-c4ccc(F)cc4)nc3)C2=O)cc1 (stereo not drawn) [Example 259, 6-(4-Fluorophenyl)-N-[1-(4-methylbenzyl)-2-oxopyrrolidin-3-yl]nicotinamide]	280
CCOC(=O)C(CNC(=O)c1ccc(-c2ccc(F)cc2)nc1)C1CCCC1 (stereo not drawn) [Example 260, Ethyl 2-cyclopentyl-3-({[6-(4-fluorophenyl)pyridin-3-yl]carbonyl}amino)propanoate]	316
O=C(NCCCNc1ccccn1)c1ccc(-c2ccc(F)cc2)nc1 [Example 261, 6-(4-Fluorophenyl)-N-[3-(pyridin-2-ylamino)propyl]nicotinamide]	91.8
CC(O)CNC(=O)c1ccc(-c2ccc(F)cc2)nc1 (stereo not drawn) [Example 262, 6-(4-Fluorophenyl)-N-(2-hydroxypropyl)nicotinamide]	992
COC(=O)CNC(=O)[C@H](C)NC(=O)c1ccc(-c2ccc(F)cc2)nc1 [Example 263, Methyl N-{[6-(4-fluorophenyl)pyridin-3-yl]carbonyl}-L-alanylglycinate]	825
O=C(NCCc1ccncc1)c1ccc(-c2ccc(F)cc2)nc1 [Example 264, 6-(4-Fluorophenyl)-N-(2-pyridin-4-ylethyl)nicotinamide]	238
CC(NC(=O)c1ccc(-c2ccc(F)cc2)nc1)c1ccccc1 (stereo not drawn) [Example 265, 6-(4-Fluorophenyl)-N-(1-phenylethyl)nicotinamide]	152
CN(C)CC(C)(C)CNC(=O)c1ccc(-c2ccc(F)cc2)nc1 [Example 266, N-[3-(Dimethylamino)-2,2-dimethylpropyl]-6-(4-fluorophenyl)nicotinamide]	≥ 1000
